Source: ChEMBL document CHEMBL5126563, “Design, synthesis, in silico studies, and antiproliferative evaluations of novel indolin-2-one derivatives containing 3-hydroxy-4-pyridinone fragment” (Bioorg Med Chem Lett, 2022)

Tests used:
Type in all cases: functional, cell-based
MOLM-13 = assay: Cytotoxicity against human MOLM-13 cells measured after 48 hrs by MTT assay; conditions: MOLM-13, 48 h
K562 = assay: Cytotoxicity against human K562 cells measured after 48 hrs by MTT assay; conditions: K562, 48 h
A549 = assay: Cytotoxicity against human A549 cells measured after 48 hrs by MTT assay; conditions: A549, 48 h
MCF7 = assay: Cytotoxicity against human MCF7 cells measured after 48 hrs by MTT assay; conditions: MCF7, 48 h

SMILES: N#Cc1cc2cc(CN3CCC(Nc4ncnc5sc(CC(F)(F)F)cc45)CC3)c(O)cc2n1Cc1cn[nH]c1
- EC50 (MOLM-13): 0.14 µM
- EC50 (K562): 2.7 µM

SMILES: CC(=O)Nc1ccc(NC(=O)CN2C(=O)/C(=N\NC(=O)Cn3ccc(=O)c(O)c3C)c3ccccc32)cc1
- EC50 (A549): > 100 µM
- EC50 (MCF7): 51.9 µM

SMILES: Cc1c(O)c(=O)ccn1CC(=O)N/N=C1\C(=O)N(CC(=O)Nc2cccc(Cl)c2)c2ccccc21
- EC50 (A549): 28 µM
- EC50 (MCF7): 34.6 µM

SMILES: Cc1cccc(NC(=O)CN2C(=O)/C(=N\NC(=O)Cn3ccc(=O)c(O)c3C)c3ccccc32)c1C
- EC50 (A549): 39.2 µM
- EC50 (MCF7): 51.9 µM

SMILES: Cc1ccc(NC(=O)CN2C(=O)/C(=N\NC(=O)Cn3ccc(=O)c(O)c3C)c3ccccc32)cc1
- EC50 (A549): 47.5 µM
- EC50 (MCF7): 52.2 µM

SMILES: Cc1c(O)c(=O)ccn1CC(=O)N/N=C1\C(=O)N(CC(=O)Nc2ccccc2Cl)c2ccccc21
- EC50 (A549): > 100 µM
- EC50 (MCF7): 46.4 µM

SMILES: Cc1c(O)c(=O)ccn1CC(=O)N/N=C1\C(=O)N(CC(=O)Nc2ccc(Cl)cc2Cl)c2ccccc21
- EC50 (A549): 61.5 µM
- EC50 (MCF7): 43.2 µM
- EC50 (MOLM-13): 1.62 µM
- EC50 (K562): 1.81 µM

SMILES: Cc1c(O)c(=O)ccn1CC(=O)N/N=C1\C(=O)N(CC(=O)Nc2ccccc2)c2ccccc21
- EC50 (A549): 29.2 µM
- EC50 (MCF7): 48.4 µM

SMILES: Cc1c(O)c(=O)ccn1CC(=O)N/N=C1\C(=O)N(CC(=O)Nc2cc(Cl)cc(Cl)c2)c2ccccc21
- EC50 (A549): 22.1 µM
- EC50 (MCF7): 35.1 µM
- EC50 (MOLM-13): 0.69 µM
- EC50 (K562): 1.22 µM

SMILES: Cc1c(O)c(=O)ccn1CC(=O)N/N=C1\C(=O)N(CC(=O)Nc2ccc(Cl)cc2)c2ccccc21
- EC50 (A549): 28.3 µM
- EC50 (MCF7): 31.4 µM

SMILES: Cc1c(O)c(=O)ccn1CC(=O)N/N=C1\C(=O)N(CC(=O)Nc2ccc(Br)cc2)c2ccccc21
- EC50 (A549): 29.3 µM
- EC50 (MCF7): 32.5 µM
- EC50 (MOLM-13): 1.17 µM
- EC50 (K562): 1.85 µM

SMILES: COc1ccc(NC(=O)CN2C(=O)/C(=N\NC(=O)Cn3ccc(=O)c(O)c3C)c3ccccc32)cc1
- EC50 (A549): 78 µM
- EC50 (MCF7): > 100 µM

SMILES: C#Cc1cccc(Nc2ncnc3cc(OCCOC)c(OCCOC)cc23)c1 [ERLOTINIB]
- EC50 (A549): 0.29 µM
- EC50 (MCF7): 2.83 µM
